Reference: the supplement of paper PMC11451515

Columns and labels:
Settings in all cases: 48 h
P12-Ichikawa [1] = assay: AUC of viability dose-response curve (% viability x log10 dose units); higher = less sensitive
Procedure, shortened: (§1)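 Leukemia cells adapted to each medium were seeded at 500 or 1000 cells/well in 1536-well plates and dosed with library compounds in DMSO at 11 threefold doses from 47 μM to 0.79 nM for 48 h at 37°C. CellTiter-Glo One luminescence was normalised per plate to DMSO and cell-free wells, then fitted with a four-parameter log-logistic model over log10 doses. Area under the curve was taken from this fit by the trapezoidal rule, with curves above full viability scaled and curves failing quality control removed.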

SEM cells [2] = assay: as above
Procedure, shortened: as §1

NOMO1 [3] = assay: as above
Procedure, shortened: as §1

P12-Ichikawa [4] = assay: cell viability relative to DMSO control; higher = less cytotoxic
Procedure, shortened: (§2)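 NOMO1, SEM and P12-Ichikawa leukemia cells spent at least four passages adapting to each medium before use. They were seeded at 500 cells/well (NOMO1, SEM) or 1000 cells/well (P12-Ichikawa) in 5 μl in 1536-well plates and pin-dosed with library compounds in DMSO at 11 threefold steps from 47 μM down to 0.79 nM. After 48 h at 37°C, CellTiter-Glo One luminescence was read. Viability is reported as a percentage of the DMSO wells on each plate, with cell-free wells as background.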

SEM cells [5] = assay: as above
Procedure, shortened: as §2

NOMO1 [6] = assay: as above
Procedure, shortened: as §2

Oc1nc(-c2ccc(C(F)(F)F)cc2)nc2c1CSCC2
AUC of viability dose-response curve
Settings | NOMO1 [3] | P12-Ichikawa [1] | SEM cells [2]
HPLM + 10% dialyzed FBS | 477 | 464 | 438
RPMI 5 mM glucose + 10% FBS | 441 | 464 | 457
RPMI 5 mM glucose + 10% dialyzed FBS | 466 | 436 | 449

cell viability [%]
Settings | NOMO1 [6] | P12-Ichikawa [4] | SEM cells [5]
HPLM + 10% dialyzed FBS, 0.000781 µM | 125 | 102 | 90.6
HPLM + 10% dialyzed FBS, 0.00234 µM | 90.4 | 109 | 95.7
HPLM + 10% dialyzed FBS, 0.00702 µM | 96.4 | 96.1 | 107
HPLM + 10% dialyzed FBS, 0.0211 µM | 81.1 | 102 | 50.8
HPLM + 10% dialyzed FBS, 0.0632 µM | 98 | 109 | 110
HPLM + 10% dialyzed FBS, 0.19 µM | 93.4 | 108 | 106
HPLM + 10% dialyzed FBS, 0.569 µM | 111 | 106 | 97.4
HPLM + 10% dialyzed FBS, 1.71 µM | 98.4 | 98.1 | 97.8
HPLM + 10% dialyzed FBS, 5.12 µM | 118 | 100 | 91.1
HPLM + 10% dialyzed FBS, 15.4 µM | 94 | 91.5 | 84.3
HPLM + 10% dialyzed FBS, 46.1 µM | 100 | 94 | 79.6
RPMI 5 mM glucose + 10% FBS, 0.000781 µM | 88.5 | 101 | 101
RPMI 5 mM glucose + 10% FBS, 0.00234 µM | 88 | 102 | 102
RPMI 5 mM glucose + 10% FBS, 0.00702 µM | 93.5 | 100 | 92.6
RPMI 5 mM glucose + 10% FBS, 0.0211 µM | 91.8 | 84.2 | 39.7
RPMI 5 mM glucose + 10% FBS, 0.0632 µM | 95.5 | 107 | 113
RPMI 5 mM glucose + 10% FBS, 0.19 µM | 97.9 | 99.5 | 107
RPMI 5 mM glucose + 10% FBS, 0.569 µM | 96.2 | 108 | 113
RPMI 5 mM glucose + 10% FBS, 1.71 µM | 87.6 | 99 | 111
RPMI 5 mM glucose + 10% FBS, 5.12 µM | 85.8 | 87.7 | 114
RPMI 5 mM glucose + 10% FBS, 15.4 µM | 104 | 96.8 | 95.6
RPMI 5 mM glucose + 10% FBS, 46.1 µM | 88.2 | 85.4 | 86
RPMI 5 mM glucose + 10% dialyzed FBS, 0.000781 µM | 92.6 | 95.1 | 97.9
RPMI 5 mM glucose + 10% dialyzed FBS, 0.00234 µM | 99.8 | 90.9 | 96.6
RPMI 5 mM glucose + 10% dialyzed FBS, 0.00702 µM | 105 | 95.5 | 105
RPMI 5 mM glucose + 10% dialyzed FBS, 0.0211 µM | 94.3 | 86.3 | 47
RPMI 5 mM glucose + 10% dialyzed FBS, 0.0632 µM | 98.1 | 90.7 | 105
RPMI 5 mM glucose + 10% dialyzed FBS, 0.19 µM | 102 | 94.7 | 114
RPMI 5 mM glucose + 10% dialyzed FBS, 0.569 µM | 91.8 | 94.4 | 111
RPMI 5 mM glucose + 10% dialyzed FBS, 1.71 µM | 102 | 99 | 98.3
RPMI 5 mM glucose + 10% dialyzed FBS, 5.12 µM | 98.4 | 87.6 | 93.6
RPMI 5 mM glucose + 10% dialyzed FBS, 15.4 µM | 99.4 | 87.8 | 82.6
RPMI 5 mM glucose + 10% dialyzed FBS, 46.1 µM | 90.4 | 79.3 | 85.2

CCCCOCCOc1nc(-c2ccc(C(=O)O)c(F)c2)sc1C
AUC of viability dose-response curve
Settings | NOMO1 [3] | P12-Ichikawa [1] | SEM cells [2]
HPLM + 10% dialyzed FBS | 420 | 464 | 456
RPMI 5 mM glucose + 10% FBS | 437 | 434 | 460
RPMI 5 mM glucose + 10% dialyzed FBS | 436 | 439 | 475

cell viability [%]
Settings | HPLM + 10% dialyzed FBS | RPMI 5 mM glucose + 10% FBS | RPMI 5 mM glucose + 10% dialyzed FBS
P12-Ichikawa [4], 0.000781 µM | 119 | 124 | 123
P12-Ichikawa [4], 0.00234 µM | 116 | 117 | 127
P12-Ichikawa [4], 0.00702 µM | 112 | 118 | 124
P12-Ichikawa [4], 0.0211 µM | 116 | 120 | 121
P12-Ichikawa [4], 0.0632 µM | 119 | 120 | 116
P12-Ichikawa [4], 0.19 µM | 112 | 110 | 114
P12-Ichikawa [4], 0.569 µM | 115 | 108 | 118
P12-Ichikawa [4], 1.71 µM | 112 | 100 | 105
P12-Ichikawa [4], 5.12 µM | 107 | 99.7 | 111
P12-Ichikawa [4], 15.4 µM | 94.5 | 86.5 | 85
P12-Ichikawa [4], 46.1 µM | 110 | 97.6 | 113
SEM cells [5], 0.000781 µM | 124 | 101 | 105
SEM cells [5], 0.00234 µM | 126 | 111 | 113
SEM cells [5], 0.00702 µM | 120 | 113 | 108
SEM cells [5], 0.0211 µM | 125 | 118 | 122
SEM cells [5], 0.0632 µM | 123 | 104 | 121
SEM cells [5], 0.19 µM | 124 | 109 | 111
SEM cells [5], 0.569 µM | 108 | 107 | 116
SEM cells [5], 1.71 µM | 111 | 102 | 120
SEM cells [5], 5.12 µM | 115 | 102 | 97.4
SEM cells [5], 15.4 µM | 109 | 84.5 | 104
SEM cells [5], 46.1 µM | 119 | 106 | 121

OC1=CC=C(C=C1)\C2=C(O)\C(=O)C3=C(O2)C=C(O)C=C3O
AUC of viability dose-response curve
Settings | NOMO1 [3] | P12-Ichikawa [1] | SEM cells [2]
HPLM + 10% dialyzed FBS | 443 | 465 | 466
RPMI 5 mM glucose + 10% FBS | 458 | 437 | 469
RPMI 5 mM glucose + 10% dialyzed FBS | 466 | 449 | 470

SEM cells [5], RPMI 5 mM glucose + 10% FBS
Settings | cell viability [%]
0.000781 µM | 119
0.00234 µM | 100
0.00702 µM | 116
0.0211 µM | 127
0.0632 µM | 127
0.19 µM | 133
0.569 µM | 135
1.71 µM | 128
5.12 µM | 127
15.4 µM | 123
46.1 µM | 87.2

CCCN1CCO[C@@H]2c3cc(O)ccc3OC[C@H]21
AUC of viability dose-response curve
Settings | NOMO1 [3] | P12-Ichikawa [1] | SEM cells [2]
HPLM + 10% dialyzed FBS | 451 | 448 | 406
RPMI 5 mM glucose + 10% FBS | 456 | 446 | 424
RPMI 5 mM glucose + 10% dialyzed FBS | 456 | 441 | 433

cell viability [%], HPLM + 10% dialyzed FBS
Settings | P12-Ichikawa [4] | SEM cells [5]
0.000781 µM | 125 | 120
0.00234 µM | 123 | 123
0.00702 µM | 128 | 135
0.0211 µM | 120 | 112
0.0632 µM | 120 | 122
0.19 µM | 118 | 118
0.569 µM | 113 | 105
1.71 µM | 114 | 103
5.12 µM | 114 | 68.4
15.4 µM | 101 | 99.7
46.1 µM | 12.1 | 48.1

C=CC(=O)Nc1cc(NC(=O)c2ccc(C)c(NC(=O)c3ccno3)c2)cc(C(F)(F)F)c1
AUC of viability dose-response curve
Settings | NOMO1 [3] | P12-Ichikawa [1] | SEM cells [2]
HPLM + 10% dialyzed FBS | 431 | 459 | 423
RPMI 5 mM glucose + 10% FBS | 457 | 454 | 451
RPMI 5 mM glucose + 10% dialyzed FBS | 467 | 452 | 438

C/C=C/C(=O)N(CC)c1ccccc1C
AUC of viability dose-response curve
Settings | NOMO1 [3] | P12-Ichikawa [1] | SEM cells [2]
HPLM + 10% dialyzed FBS | 393 | 458 | 434
RPMI 5 mM glucose + 10% FBS | 431 | 470 | 465
RPMI 5 mM glucose + 10% dialyzed FBS | 399 | 432 | 428

CCN[C@H]1C[C@H](C)[S+](=O)([O-])c2sc([S+](N)(=O)[O-])cc21
AUC of viability dose-response curve
Settings | HPLM + 10% dialyzed FBS | RPMI 5 mM glucose + 10% FBS | RPMI 5 mM glucose + 10% dialyzed FBS
NOMO1 [3] | 434 | 452 | 415
P12-Ichikawa [1] | 460 | 440 | 471

SEM cells [5], HPLM + 10% dialyzed FBS
Settings | cell viability [%]
0.000781 µM | 137
0.00234 µM | 100
0.00702 µM | 120
0.0211 µM | 126
0.0632 µM | 36.4
0.19 µM | 129
0.569 µM | 135
1.71 µM | 126
5.12 µM | 52.8
15.4 µM | 131
46.1 µM | 118

C[N]1N=C(C)C2=C1OC(=C(/C#N)C2C3=CC=C(C=C3)C(F)(F)F)/N (stereo not given)
AUC of viability dose-response curve
Settings | HPLM + 10% dialyzed FBS | RPMI 5 mM glucose + 10% FBS | RPMI 5 mM glucose + 10% dialyzed FBS
P12-Ichikawa [1] | 457 | 467 | 454
SEM cells [2] | 467 | 438 | 439
